Measured values taken from ChEMBL document CHEMBL1268975, “Building a MCHR1 homology model provides insight into the receptor-antagonist contacts that are important for the development of new anti-obesity agents” (Bioorg Med Chem, 2010).

Key:
[1] = biological target: Melanin-concentrating hormone receptor 1 (Homo sapiens, UniProt Q99705); assay: biochemical; type: cell-based, HEK293
Description: Displacement of [3H]SNAP-7941 from human MCHR1 expressed in HEK cells

Histamine H3 receptor = Histamine H3 receptor (Homo sapiens, UniProt Q9Y5N1)
Chain of Histamine H3 receptor (Q9Y5N1 whole entry): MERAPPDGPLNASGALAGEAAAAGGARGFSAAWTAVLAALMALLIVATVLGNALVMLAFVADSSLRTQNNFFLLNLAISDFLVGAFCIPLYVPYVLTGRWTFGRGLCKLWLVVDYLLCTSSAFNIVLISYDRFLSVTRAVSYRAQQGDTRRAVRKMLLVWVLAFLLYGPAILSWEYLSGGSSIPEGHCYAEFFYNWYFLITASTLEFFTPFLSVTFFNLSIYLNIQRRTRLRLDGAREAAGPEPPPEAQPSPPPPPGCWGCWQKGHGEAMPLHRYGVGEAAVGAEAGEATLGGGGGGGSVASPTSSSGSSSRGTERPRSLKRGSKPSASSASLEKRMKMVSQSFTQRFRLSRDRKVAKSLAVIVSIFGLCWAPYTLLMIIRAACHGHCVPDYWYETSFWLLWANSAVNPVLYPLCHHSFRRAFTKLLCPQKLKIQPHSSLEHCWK
Description: Displacement of [125I]Iodoproxyfan from histamine H3 receptor

Chain of Melanin-concentrating hormone receptor 1 (Q99705 whole entry): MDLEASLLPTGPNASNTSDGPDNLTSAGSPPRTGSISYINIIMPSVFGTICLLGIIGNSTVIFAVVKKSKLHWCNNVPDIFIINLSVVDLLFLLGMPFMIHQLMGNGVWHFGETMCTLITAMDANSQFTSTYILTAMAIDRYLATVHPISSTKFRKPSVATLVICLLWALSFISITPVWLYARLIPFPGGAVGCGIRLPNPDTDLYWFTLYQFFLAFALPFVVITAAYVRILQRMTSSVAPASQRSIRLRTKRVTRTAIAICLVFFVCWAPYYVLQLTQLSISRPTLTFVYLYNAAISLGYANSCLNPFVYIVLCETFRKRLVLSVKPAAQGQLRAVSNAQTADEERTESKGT

SMILES	Ki [1] [nM]	Ki (Histamine H3 receptor) [nM]
COc1ccccc1-c1ccc(CN(CCC2CCN(Cc3ccc(C)cc3)CC2)C(=O)NC(C)C)cc1	> 1000	> 1000
Cc1ccc(CN2CCC(NC(=O)NCc3ccc(-c4ccccc4)cc3)CC2)cc1	–	> 1000
Cc1ccc(CN2CCC(NC(=O)NCc3ccc(-c4cccc(C#N)c4)cc3)CC2)cc1	–	> 1000
Cc1ccc(CN2CCC(CCN(Cc3ccc(-c4cccc(C#N)c4)cc3)C(=O)NC(C)C)CC2)cc1	–	853
CCC(CO)(CO)NC(=O)N(CCC1CCN(Cc2ccc(C)cc2)CC1)Cc1ccc(-c2ccc(F)cc2)cc1	–	> 1000
COc1ccc(-c2ccc(CN(CCC3CCN(Cc4ccc(C)cc4)CC3)C(=O)NC(C)(C)CO)cc2)cc1	–	9260
Cc1ccc(CN2CCC(NC(=O)N(CC(=O)C(C)(C)O)Cc3ccc(-c4cccc(C#N)c4)cc3)CC2)cc1	–	2800
CC(=O)OCC(C)(C)NC(=O)N(CCC1CCN(Cc2ccc(C)cc2)CC1)Cc1ccc(-c2cccc(C#N)c2)cc1	–	1630
Cc1ccc(CN2CCC(NC(=O)N(CC(=O)C(C)(C)O)Cc3ccc(-c4ccccc4)cc3)CC2)cc1	> 1000	> 1000
COc1ccccc1-c1ccc(CN(CCC2CCN(Cc3ccc(C)cc3)CC2)C(=O)NC(C)(C)COC(C)=O)cc1	–	1050
CC(=O)OCC(C)(C)NC(=O)N(CCC1CCN(Cc2ccc(C)cc2)CC1)Cc1ccc(-c2ccccc2)cc1	–	1130
COc1ccccc1-c1ccc(CN(CC(=O)C(C)(C)O)C(=O)NC2CCN(Cc3ccc(C)cc3)CC2)cc1	–	9990
CC(=O)OCC(C)(C)NC(=O)N(CCC1CCN(Cc2ccc(C)cc2)CC1)Cc1ccc(-c2ccc(F)cc2)cc1	–	2080

The next lines start with the values.

Ki [1] [nM]	Ki (Histamine H3 receptor) [nM]	SMILES
–	8800	CCC(CO)(CO)NC(=O)N(CCC1CCN(Cc2ccc(C)cc2)CC1)Cc1ccc(-c2cccc(C#N)c2)cc1
–	629	CCC(COC(C)=O)(COC(C)=O)NC(=O)N(CCC1CCN(Cc2ccc(C)cc2)CC1)Cc1ccc(-c2ccccc2OC)cc1
–	807	CCC(COC(C)=O)(COC(C)=O)NC(=O)N(CCC1CCN(Cc2ccc(C)cc2)CC1)Cc1ccc(-c2ccccc2)cc1
–	5150	COc1ccc(-c2ccc(CNC(=O)NC3CCN(Cc4ccc(C)cc4)CC3)cc2)cc1
–	1420	Cc1ccc(CN2CCC(NC(=O)N(CC(=O)C(C)(C)O)Cc3ccc(-c4ccc(F)cc4)cc3)CC2)cc1
> 1000	581	COc1ccc(-c2ccc(CN(CC(=O)C(C)(C)O)C(=O)NC3CCN(Cc4ccc(C)cc4)CC3)cc2)cc1
–	> 1000	COc1ccccc1-c1ccc(CNC(=O)NC2CCN(Cc3ccc(C)cc3)CC2)cc1
–	1010	COc1ccc(-c2ccc(CN(CCC3CCN(Cc4ccc(C)cc4)CC3)C(=O)NC(C)(C)COC(C)=O)cc2)cc1
–	779	CCC(COC(C)=O)(COC(C)=O)NC(=O)N(CCC1CCN(Cc2ccc(C)cc2)CC1)Cc1ccc(-c2ccc(OC)cc2)cc1
–	899	CCC(CO)(CO)NC(=O)N(CCC1CCN(Cc2ccc(C)cc2)CC1)Cc1ccc(-c2ccc(OC)cc2)cc1
–	6510	COc1ccc(-c2ccc(CN(CCC3CCN(Cc4ccc(C)cc4)CC3)C(=O)NC(C)C)cc2)cc1
–	1160	Cc1ccc(CN2CCC(CCN(Cc3ccc(-c4cccc(C#N)c4)cc3)C(=O)NC(C)(C)CO)CC2)cc1
–	1310	CCC(COC(C)=O)(COC(C)=O)NC(=O)N(CCC1CCN(Cc2ccc(C)cc2)CC1)Cc1ccc(-c2cccc(C#N)c2)cc1
–	548	CCC(COC(C)=O)(COC(C)=O)NC(=O)N(CCC1CCN(Cc2ccc(C)cc2)CC1)Cc1ccc(-c2ccc(F)cc2)cc1
–	> 1000	Cc1ccc(CN2CCC(CCN(Cc3ccc(-c4ccccc4)cc3)C(=O)NC(C)C)CC2)cc1
–	6680	COc1ccccc1-c1ccc(CN(CCC2CCN(Cc3ccc(C)cc3)CC2)C(=O)NC(C)(C)CO)cc1
–	2140	CCC(CO)(CO)NC(=O)N(CCC1CCN(Cc2ccc(C)cc2)CC1)Cc1ccc(-c2ccccc2OC)cc1
–	> 1000	Cc1ccc(CN2CCC(CCN(Cc3ccc(-c4ccc(F)cc4)cc3)C(=O)NC(C)(C)CO)CC2)cc1
